Data reported in patent publication US6346542B1, “Pesticidal composition comprising enantiomeric form of fipronil” (priority 1999, dated 2002).

Tests used:
dogs [1] = assay: Emesis after oral administration; type: in vivo, dog; conditions: for emetic activity on oral administration: oral administration to animals, dose not stated; for dogs showing emesis: 20 mg/kg oral capsule, within 5 hours after administration
Method: Another unexpected substantial advantage is that the (S) enantiomer provides a substantial reduction in emesis when administered to an animal orally. By the term “emesis” is meant vomiting. Generally, an emetic substance elicits emesis in less than 24 hours after administration, usually less than 8 hours, more usually less than 2 hours.

dogs [2] = conditions: 10 mg/kg in dogs
[3] = tested on: cat fleas (Ctenocephalides felis); assay: Oral efficacy against cat fleas on infested dogs; type: in vivo
[4] = tested on: brown dog ticks (Rhipicephalus sanguineus); assay: Oral efficacy against brown dog ticks on infested dogs; conditions: for ticks remaining: 23 days after administration

Structure (SMILES) | emetic activity on oral administration (dogs [1]) | per cent (%) mortality of the arthropods, Flea ([3]; 1 mg/kg oral, 1 DAT) | per cent (%) mortality of the arthropods, Flea ([3]; 1 mg/kg oral, 9 DAT) | per cent (%) mortality of the arthropods, Flea ([3]; 1 mg/kg oral, 16 DAT) | per cent (%) mortality of the arthropods, Flea ([3]; 1 mg/kg oral, 23 DAT) | per cent (%) mortality of the arthropods, Flea ([3]; 3 mg/kg oral, 1 DAT) | per cent (%) mortality of the arthropods, Flea ([3]; 3 mg/kg oral, 9 DAT) | per cent (%) mortality of the arthropods, Flea ([3]; 3 mg/kg oral, 16 DAT) | per cent (%) mortality of the arthropods, Flea ([3]; 3 mg/kg oral, 23 DAT) | per cent (%) mortality of the arthropods, Flea ([3]; 10 mg/kg oral, 1 DAT) | per cent (%) mortality of the arthropods, Flea ([3]; 10 mg/kg oral, 9 DAT) | per cent (%) mortality of the arthropods, Flea ([3]; 10 mg/kg oral, 16 DAT) | per cent (%) mortality of the arthropods, Flea ([3]; 10 mg/kg oral, 23 DAT) | per cent (%) mortality of the arthropods, Flea ([3]; 20 mg/kg oral capsule, 1 DAT) | per cent (%) mortality of the arthropods, Flea ([3]; 20 mg/kg oral capsule, 9 DAT) | per cent (%) mortality of the arthropods, Flea ([3]; 20 mg/kg oral capsule, 16 DAT) | per cent (%) mortality of the arthropods, Flea ([3]; 20 mg/kg oral capsule, 23 DAT) | per cent (%) mortality of the arthropods, Flea ([3]; 20 mg/kg oral capsule, 31 DAT) | dogs showing emesis (dogs [1]) | per cent (%) mortality of the arthropods, Tick ([4]; 1 mg/kg oral, 1 DAT) | other results
N#Cc1nn(-c2c(Cl)cc(C(F)(F)F)cc2Cl)c(N)c1[S+]([O-])C(F)(F)F (racemic) [fipronil, 5-amino-3-cyano-1-(2,6-dichloro-4-trifluoromethylphenyl)-4-trifluoromethylsulfinylpyrazole] | causes emesis | – | – | – | – | – | – | – | – | – | – | – | – | – | – | – | – | – | – | – | –
CC(=O)Nc1c([S@@+]([O-])C(F)(F)F)c(C#N)nn1-c1c(Cl)cc(C(F)(F)F)cc1Cl (single isomer, unassigned) [5-acetylamino (R) enantiomer] | – | – | – | – | – | – | – | – | – | – | – | – | – | – | – | – | – | – | – | – | mortality (dogs [2]): 33%
N#Cc1nn(-c2c(Cl)cc(C(F)(F)F)cc2Cl)c(N)c1[S@+]([O-])C(F)(F)F [Compound B, (S)-5-amino-3-cyano-1-(2,6-dichloro-4-trifluoromethylphenyl)-4-trifluoromethylsulfinylpyrazole] | lower emetic activity | 100% | 100% | 90% | 79% | 100% | 98% | 67% | 50% | 100% | 99% | 87% | 83% | 100% | 96% | 86% | 88% | 84% | 50% | 100% | symptoms of emesis (dogs [1]; oral, dogs, at any rate (1, 3, 10 mg/kg)): substantially no symptoms of emesis; per cent (%) mortality of the arthropods, Tick ([4]; 1 mg/kg oral, 9 DAT): 100%; per cent (%) mortality of the arthropods, Tick ([4]; 1 mg/kg oral, 16 DAT): 87%; per cent (%) mortality of the arthropods, Tick ([4]; 1 mg/kg oral, 23 DAT): 85%; per cent (%) mortality of the arthropods, Tick ([4]; 3 mg/kg oral, 1 DAT): 98%; per cent (%) mortality of the arthropods, Tick ([4]; 3 mg/kg oral, 9 DAT): 99%; per cent (%) mortality of the arthropods, Tick ([4]; 3 mg/kg oral, 16 DAT): 75%; per cent (%) mortality of the arthropods, Tick ([4]; 3 mg/kg oral, 23 DAT): 63%; per cent (%) mortality of the arthropods, Tick ([4]; 10 mg/kg oral, 1 DAT): 99%; per cent (%) mortality of the arthropods, Tick ([4]; 10 mg/kg oral, 9 DAT): 100%; per cent (%) mortality of the arthropods, Tick ([4]; 10 mg/kg oral, 16 DAT): 85%; per cent (%) mortality of the arthropods, Tick (effectiveness) ([4]; 10 mg/kg oral, 23 DAT): 85%; ticks remaining ([4]; 10 mg/kg oral): 15%; per cent (%) mortality of the arthropods, Tick ([4]; 20 mg/kg oral capsule, 1 DAT): 99%; per cent (%) mortality of the arthropods, Tick ([4]; 20 mg/kg oral capsule, 9 DAT): 97%; per cent (%) mortality of the arthropods, Tick ([4]; 20 mg/kg oral capsule, 16 DAT): 87%; per cent (%) mortality of the arthropods, Tick ([4]; 20 mg/kg oral capsule, 23 DAT): 86%; per cent (%) mortality of the arthropods, Tick ([4]; 20 mg/kg oral capsule, 31 DAT): 92%
N#Cc1nn(-c2c(Cl)cc(C(F)(F)F)cc2Cl)c(N)c1[S@@+]([O-])C(F)(F)F [Compound C, (R)-5-amino-3-cyano-1-(2,6-dichloro-4-trifluoromethylphenyl)-4-trifluoromethylsulfinylpyrazole] | – | 100% | 100% | 76% | 72% | 100% | 78% | 72% | 64% | 100% | 95% | 72% | 86% | 100% | 86% | 69% | 67% | 69% | 90% | 100% | animals showing emesis symptoms (dogs [1]; 3 mg/kg oral, dogs, after 2 hours): 20%; animals showing emesis symptoms (dogs [1]; 10 mg/kg oral, dogs, after 1 hour): 40%; animals showing emesis symptoms (dogs [1]; 10 mg/kg oral, dogs, after 3 hours): 20%; per cent (%) mortality of the arthropods, Tick ([4]; 1 mg/kg oral, 9 DAT): 100%; per cent (%) mortality of the arthropods, Tick ([4]; 1 mg/kg oral, 16 DAT): 66%; per cent (%) mortality of the arthropods, Tick ([4]; 1 mg/kg oral, 23 DAT): 78%; per cent (%) mortality of the arthropods, Tick ([4]; 3 mg/kg oral, 1 DAT): 93%; per cent (%) mortality of the arthropods, Tick ([4]; 3 mg/kg oral, 9 DAT): 89%; per cent (%) mortality of the arthropods, Tick ([4]; 3 mg/kg oral, 16 DAT): 71%; per cent (%) mortality of the arthropods, Tick ([4]; 3 mg/kg oral, 23 DAT): 65%; per cent (%) mortality of the arthropods, Tick ([4]; 10 mg/kg oral, 1 DAT): 97%; per cent (%) mortality of the arthropods, Tick ([4]; 10 mg/kg oral, 9 DAT): 97%; per cent (%) mortality of the arthropods, Tick ([4]; 10 mg/kg oral, 16 DAT): 71%; per cent (%) mortality of the arthropods, Tick (effectiveness) ([4]; 10 mg/kg oral, 23 DAT): 71%; ticks remaining ([4]; 10 mg/kg oral): 29%; per cent (%) mortality of the arthropods, Tick ([4]; 20 mg/kg oral capsule, 1 DAT): 97%; per cent (%) mortality of the arthropods, Tick ([4]; 20 mg/kg oral capsule, 9 DAT): 96%; per cent (%) mortality of the arthropods, Tick ([4]; 20 mg/kg oral capsule, 16 DAT): 85%; per cent (%) mortality of the arthropods, Tick ([4]; 20 mg/kg oral capsule, 23 DAT): 77%; per cent (%) mortality of the arthropods, Tick ([4]; 20 mg/kg oral capsule, 31 DAT): 81%
